Laboratory results taken from patent publication US6403616B1, “Chemical process and pharmaceutical formulation” (AstraZeneca AB, priority 1998, dated 2002).

Assay: pKa of omeprazole magnesium
Type: physicochemical
Excerpt: Preferably, a suspension of omeprazole magnesium should have a pH of 9.5 or above in a 10% (w/w) suspension of the bulk substance.

COc1ccc2[n-]c([S+]([O-])Cc3ncc(C)c(OC)c3C)nc2c1.COc1ccc2[n-]c([S+]([O-])Cc3ncc(C)c(OC)c3C)nc2c1.[Mg+2] (stereo not shown) [omeprazole magnesium]
pKa: 8.8
